Tests used:
Type in all cases: physicochemical
[1] = Solubility of the powder in 2-butanone; conditions: room temperature
Experimental: (§1) In accordance with the present disclosure, 1-(para-toluenesulfonyl)-3-[2-(4-oxo-4H-benzo[d][1,3]oxazine-2-yl)-phenyl]urea, also named 1-(4-methylphenylsulfonyl)-3-[2-(4-oxo-4H-benzo[d][1,3]oxazine-2-yl)-phenyl]urea, where R^1, R^2, R^3 and R^4 are each hydrogen, and R^5 is 4-methylphenyl, was prepared according to the following procedure: A 250 mL three-neck bottle was charged at room temperature with anthranoylanthranilic acid (0.05 mol) and 100 mL methyl ethyl ketone. Para-toluenesulfonyl isocyanate (0.05 mol) was then added, with stirring, and the reaction mixture was heated under reflux at about 80° C. for about 4 hours. Thereafter, the resulting suspension was cooled to about 40° C., and acetic anhydride (40 mL) was added. The resulting mixture was heated for an additional 3 hours. After cooling to about 10° C., the precipitate was filtered under suction, washed with acetone, and dried at about 50° C. under atmospheric pressure to produce a white powder in about 70% -85% yield. The Emission (fluorescence) maximum of the resultant powder was 526 nm. The excitation maximum is/was 380 nm. […] Intensity of fluorescence of the powder was 350 cd/m^2, as measured with a Minolta luminance meter under 365 nm excitation. Solubility of the powder in 2-butanone was less than 0.5% at room temperature.

[2] = Fluorescence emission and excitation maxima of the powder
Excerpt: The benzoxazinone compounds of the present disclosure are colorless, and fluoresce in the visible region. More specifically, the benzoxazinone compounds of the present disclosure produce a bright emission in a region from about 520 nm to about 540 nm wavelength when irradiated by UV light energy at about 366 nm wavelength. The benzoxazinone compounds have an excitation maximum at about 340 nm to about 420 nm wavelength.
as §1

[3] = Intensity of fluorescence of the powder, Minolta luminance meter under 365 nm excitation
Experimental: as §1

[4] = Lightfastness: relative intensities at 0 hours and after 104 hours (FIGS. 1 and 2); conditions: compared with Lumilux CD 397 and Lumilux CD 302
Experimental: FIG. 1 is a comparative bar graph of the lightfastness of 1-(para-toluenesulfonyl)-3-[2-(4-oxo-4H-benzo[d]-[1,3]oxazine-2-yl)-phenyl]urea (compound 7), as compared with aliphatic ureidobenzoxazinone (UBO)(compound 11), Nitril-AUBO (compound 33), Lumiluxg CD 397, and Lumilux® CD 302, by measuring relative intensities at 0 hours and after 104 hours.
FIG. 2 is a comparative bar graph of the percent (%) loss of intensity of lightfastness of 1-(para-toluenesulfonyl)-3-[2-(4-oxo-4H-benzo[d]-[1,3]oxazine-2-yl)-phenyl]urea (compound 7) relative to compound 11, compound 33, Lumilux® CD 397, and Lumilux® CD 302.
Referring now to the Figures, FIG. 1 illustrates a comparative bar graph of the intensity of lightfastness (in cd/m^2) of 1-(para-toluenesulfonyl)-3-[2-(4-oxo-4H-benzo[d]-[1,3]oxazine-2-yl)-phenyl]urea (compound 7), which is shown relative to various ureido benzoxazinone compounds (UBO), such as aliphatic UBO (compound 11), Nitril-AUBO (compound 33), and Lumilux® CD 397 and Lumilux® CD 302.
FIG. 2 is a comparative bar graph illustrating of the percent loss of intensity of lightfastness of 1-(para-toluenesulfonyl)-3-[2-(4-oxo-4H-benzo[d]-[1,3]oxazine-2-yl)-phenyl]urea (compound 7) compared with ureido benzoxazinone compounds (UBO) such as compound 11, compound 33, Lumilux® CD 397 and Lumiluxg CD 302.

Solubility of the powder in 2-butanone [1] | Emission (fluorescence) maximum of the resultant powder [2] [nm] | excitation maximum [2] [nm] | Intensity of fluorescence of the powder [3] | loss of lightfastness intensity ([4]; after 104 hours) | Compound | degree (intensity) of lightfastness ([4]; 0 hours and after 104 hours)
less than 0.5% | 526 | 380 | 350 cd/m^2 | lower loss of lightfastness intensity | Cc1ccc(S(=O)(=O)NC(=O)Nc2ccccc2-c2nc3ccccc3c(=O)o2)cc1 [Example 1, 1-(para-toluenesulfonyl)-3-[2-(4-oxo-4H-benzo[d]-[1,3]oxazine-2-yl)-phenyl]urea] | greater degree (intensity) of lightfastness
less than 0.5% | 528 | 380 | 320 cd/m^2 | – | O=C(Nc1ccccc1-c1nc2ccccc2c(=O)o1)NS(=O)(=O)c1ccccc1 [Example 2, 1-(phenylsulfonyl)-3-[2-(4-oxo-4H-benzo[d]-[1,3]oxazine-2-yl)-phenyl]urea] | –
less than 1% | 530 | 380 | 260 cd/M^2 | – | Cc1ccccc1S(=O)(=O)NC(=O)Nc1ccccc1-c1nc2ccccc2c(=O)o1 [Example 3, 1-(2-methylphenylsulfonyl)-3-[2-(4-oxo-4H-benzo[d]-[1,3]oxazine-2-yl)-phenyl]urea] | –
less than 0.5% | 539 | 380 | 330 cd/m^2 | – | O=C(Nc1ccccc1-c1nc2ccccc2c(=O)o1)NS(=O)(=O)c1ccc(Cl)cc1 [Example 4, 1-(4-chlorophenylsulfonyl)-3-[2-(4-oxo-4H-benzo[d]-[1,3]oxazine-2-yl)-phenyl]urea] | –
